{
  "source": "ChEMBL document CHEMBL1201862",
  "about": "“PubChem BioAssay data set” (2004)",
  "assay_in_all_cases": "NCI-60 cell line screen, 48 h",
  "key": {"[1]": {"test_system": "SK-MEL-28"}, "[2]": {"test_system": "BT-549"}, "[3]": {"test_system": "A498"}, "[4]": {"test_system": "786-0"}, "[5]": {"test_system": "HT-29"}, "[6]": {"test_system": "EKVX"}, "[7]": {"test_system": "MCF7"}, "[8]": {"test_system": "PC-3"}, "[9]": {"test_system": "SW-620"}, "[10]": {"test_system": "SNB-19"}, "[11]": {"test_system": "HCC 2998"}, "[12]": {"test_system": "TK-10"}, "[13]": {"test_system": "DU-145"}, "[14]": {"test_system": "MDA-MB-231"}, "[15]": {"test_system": "UACC-257"}, "[16]": {"test_system": "IGROV-1"}, "[17]": {"test_system": "OVCAR-4"}, "[18]": {"test_system": "Malme-3M"}, "[19]": {"test_system": "ACHN"}, "[20]": {"test_system": "UO-31"}, "[21]": {"test_system": "RXF 393"}, "[22]": {"test_system": "SK-MEL-2"}, "[23]": {"test_system": "UACC-62"}, "[24]": {"test_system": "OVCAR-5"}, "[25]": {"test_system": "SF-295"}, "[26]": {"test_system": "SF-268"}, "[27]": {"test_system": "SK-OV-3"}, "[28]": {"test_system": "NCI-H226"}, "[29]": {"test_system": "CCRF-CEM"}, "[30]": {"test_system": "SF-539"}, "[31]": {"test_system": "COLO 205"}, "[32]": {"test_system": "NCI-H522"}, "[33]": {"test_system": "NCI/ADR-RES"}, "[34]": {"test_system": "OVCAR-3"}, "[35]": {"test_system": "A549"}, "[36]": {"test_system": "MDA-N"}, "[37]": {"test_system": "M14"}, "[38]": {"test_system": "Hs-578T"}, "[39]": {"test_system": "SR"}, "[40]": {"test_system": "U-251"}, "[41]": {"test_system": "K562"}, "[42]": {"test_system": "HL-60"}, "[43]": {"test_system": "HOP-62"}, "[44]": {"test_system": "MDA-MB-435"}, "[45]": {"test_system": "SK-MEL-5"}, "[46]": {"test_system": "SNB-75"}, "[47]": {"test_system": "CAKI-1"}, "[48]": {"test_system": "HCT-116"}, "[49]": {"test_system": "LOX IMVI"}, "[50]": {"test_system": "NCI-H23"}, "[51]": {"test_system": "RPMI-8226"}, "[52]": {"test_system": "NCI-H460"}, "[53]": {"test_system": "OVCAR-8"}, "[54]": {"test_system": "KM12"}, "[55]": {"test_system": "HCT-15"}, "[56]": {"test_system": "SN12C"}, "[57]": {"test_system": "T47D"}},
  "note": "“And” between values parts separate entries of the source, which are not always exact repeats. Identical values can stand only once.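 Tested at 5 concentrations; 48 h exposure; 96-well plates; endpoints linearly interpolated, else capped at highest concentration. At the GI50, growth is halved.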 The source made the active and inactive calls. Cut-off read from the data, not from the text of the source: active = GI50 up to about 1.1 µM and inactive = higher.",
  "data": [
    {"compound": "CC(C)=CCCC1(C)C2COC(=O)C21", "note": "(stereo unspecified)", "values": [
      {"measurement": "GI50", "setting": "[1]", "result": "> 100 µM (inactive)"},
      {"measurement": "GI50", "setting": "[2]", "result": "> 100 µM (inactive)"},
      {"measurement": "GI50", "setting": "[3]", "result": "> 100 µM (inactive)"},
      {"measurement": "GI50", "setting": "[4]", "result": "> 100 µM (inactive) and 63.2 µM (inactive)"},
      {"measurement": "GI50", "setting": "[5]", "result": "> 100 µM (inactive)"},
      {"measurement": "GI50", "setting": "[6]", "result": "67.5 µM (inactive)"},
      {"measurement": "GI50", "setting": "[7]", "result": "31.3 µM (inactive) and 33.9 µM (inactive)"},
      {"measurement": "GI50", "setting": "[8]", "result": "> 100 µM (inactive)"},
      {"measurement": "GI50", "setting": "[9]", "result": "64.7 µM (inactive)"},
      {"measurement": "GI50", "setting": "[10]", "result": "> 100 µM (inactive)"},
      {"measurement": "GI50", "setting": "[11]", "result": "> 100 µM (inactive)"},
      {"measurement": "GI50", "setting": "[12]", "result": "> 100 µM (inactive)"},
      {"measurement": "GI50", "setting": "[13]", "result": "> 100 µM (inactive)"},
      {"measurement": "GI50", "setting": "[14]", "result": "> 100 µM (inactive)"},
      {"measurement": "GI50", "setting": "[15]", "result": "> 100 µM (inactive)"},
      {"measurement": "GI50", "setting": "[16]", "result": "53.7 µM (inactive)"},
      {"measurement": "GI50", "setting": "[17]", "result": "> 100 µM (inactive) and 80 µM (inactive)"},
      {"measurement": "GI50", "setting": "[18]", "result": "> 100 µM (inactive)"},
      {"measurement": "GI50", "setting": "[19]", "result": "> 100 µM (inactive) and 68.9 µM (inactive)"},
      {"measurement": "GI50", "setting": "[20]", "result": "> 100 µM (inactive)"},
      {"measurement": "GI50", "setting": "[21]", "result": "> 100 µM (inactive)"},
      {"measurement": "GI50", "setting": "[22]", "result": "> 100 µM (inactive)"},
      {"measurement": "GI50", "setting": "[23]", "result": "> 100 µM (inactive)"},
      {"measurement": "GI50", "setting": "[24]", "result": "> 100 µM (inactive)"},
      {"measurement": "GI50", "setting": "[25]", "result": "> 100 µM (inactive) and 63.2 µM (inactive)"},
      {"measurement": "GI50", "setting": "[26]", "result": "> 100 µM (inactive)"},
      {"measurement": "GI50", "setting": "[27]", "result": "> 100 µM (inactive)"}
    ]},
    {"compound": "NC1CCC[C@@H](O)[C@H]1O", "note": "(stereo partly specified)", "values": [
      {"measurement": "GI50", "setting": "[2]", "result": "> 100 µM (inactive)"},
      {"measurement": "GI50", "setting": "[10]", "result": "> 100 µM (inactive)"},
      {"measurement": "GI50", "setting": "[28]", "result": "> 100 µM (inactive)"},
      {"measurement": "GI50", "setting": "[16]", "result": "> 100 µM (inactive)"},
      {"measurement": "GI50", "setting": "[29]", "result": "> 100 µM (inactive)"},
      {"measurement": "GI50", "setting": "[18]", "result": "> 100 µM (inactive)"},
      {"measurement": "GI50", "setting": "[20]", "result": "76.7 µM (inactive)"},
      {"measurement": "GI50", "setting": "[30]", "result": "> 100 µM (inactive)"},
      {"measurement": "GI50", "setting": "[31]", "result": "> 100 µM (inactive)"},
      {"measurement": "GI50", "setting": "[32]", "result": "> 100 µM (inactive)"}
    ]},
    {"compound": "N[C@H]1CCC[C@@H](O)C1O", "note": "(stereo partly specified)", "values": [
      {"measurement": "GI50", "setting": "[1]", "result": "> 100 µM (inactive)"},
      {"measurement": "GI50", "setting": "[3]", "result": "> 100 µM (inactive)"},
      {"measurement": "GI50", "setting": "[4]", "result": "> 100 µM (inactive)"},
      {"measurement": "GI50", "setting": "[5]", "result": "> 100 µM (inactive)"},
      {"measurement": "GI50", "setting": "[6]", "result": "> 100 µM (inactive)"},
      {"measurement": "GI50", "setting": "[33]", "result": "> 100 µM (inactive)"},
      {"measurement": "GI50", "setting": "[7]", "result": "> 100 µM (inactive)"},
      {"measurement": "GI50", "setting": "[8]", "result": "> 100 µM (inactive)"},
      {"measurement": "GI50", "setting": "[9]", "result": "> 100 µM (inactive)"},
      {"measurement": "GI50", "setting": "[34]", "result": "> 100 µM (inactive)"},
      {"measurement": "GI50", "setting": "[35]", "result": "> 100 µM (inactive)"},
      {"measurement": "GI50", "setting": "[11]", "result": "> 100 µM (inactive)"},
      {"measurement": "GI50", "setting": "[13]", "result": "> 100 µM (inactive)"},
      {"measurement": "GI50", "setting": "[36]", "result": "> 100 µM (inactive)"},
      {"measurement": "GI50", "setting": "[14]", "result": "> 100 µM (inactive)"},
      {"measurement": "GI50", "setting": "[15]", "result": "> 100 µM (inactive)"},
      {"measurement": "GI50", "setting": "[37]", "result": "> 100 µM (inactive)"},
      {"measurement": "GI50", "setting": "[38]", "result": "> 100 µM (inactive)"},
      {"measurement": "GI50", "setting": "[39]", "result": "> 100 µM (inactive)"},
      {"measurement": "GI50", "setting": "[40]", "result": "> 100 µM (inactive)"},
      {"measurement": "GI50", "setting": "[41]", "result": "> 100 µM (inactive)"},
      {"measurement": "GI50", "setting": "[42]", "result": "> 100 µM (inactive)"},
      {"measurement": "GI50", "setting": "[43]", "result": "> 100 µM (inactive)"},
      {"measurement": "GI50", "setting": "[44]", "result": "> 100 µM (inactive)"},
      {"measurement": "GI50", "setting": "[45]", "result": "> 100 µM (inactive)"},
      {"measurement": "GI50", "setting": "[19]", "result": "> 100 µM (inactive)"},
      {"measurement": "GI50", "setting": "[46]", "result": "> 100 µM (inactive)"},
      {"measurement": "GI50", "setting": "[47]", "result": "> 100 µM (inactive)"},
      {"measurement": "GI50", "setting": "[22]", "result": "> 100 µM (inactive)"},
      {"measurement": "GI50", "setting": "[48]", "result": "> 100 µM (inactive)"},
      {"measurement": "GI50", "setting": "[49]", "result": "> 100 µM (inactive)"},
      {"measurement": "GI50", "setting": "[23]", "result": "> 100 µM (inactive)"},
      {"measurement": "GI50", "setting": "[24]", "result": "> 100 µM (inactive)"},
      {"measurement": "GI50", "setting": "[50]", "result": "> 100 µM (inactive)"},
      {"measurement": "GI50", "setting": "[51]", "result": "> 100 µM (inactive)"},
      {"measurement": "GI50", "setting": "[25]", "result": "> 100 µM (inactive)"},
      {"measurement": "GI50", "setting": "[52]", "result": "> 100 µM (inactive)"},
      {"measurement": "GI50", "setting": "[53]", "result": "> 100 µM (inactive)"},
      {"measurement": "GI50", "setting": "[26]", "result": "> 100 µM (inactive)"},
      {"measurement": "GI50", "setting": "[54]", "result": "> 100 µM (inactive)"},
      {"measurement": "GI50", "setting": "[55]", "result": "> 100", "unit": "µM"},
      {"measurement": "GI50", "setting": "[56]", "result": "> 100 µM (inactive)"},
      {"measurement": "GI50", "setting": "[27]", "result": "> 100 µM (inactive)"},
      {"measurement": "GI50", "setting": "[57]", "result": "> 100 µM (inactive)"}
    ]}
  ]
}
